# Source: patent US20250189516A1, “PHOSPHORYLATION OF P53 AS A PROGNOSTIC OR DIAGNOSTIC MARKER FOR THE TREATMENT OF SENESCENT CELLS IN A MAMMAL” (CLEARA BIOTECH B.V., priority 2022, published 2025)
# Square brackets hold non-standard residues; d marks the D form. Ends that are not written are not given here.
# B1: FOXO4: fragment of human FOXO4 (Uniprot ID P98177) from amino acid 86 to 207, recombinant forkhead domain (protein)
# chain: GAVTGPRKGGSRRNAWGNQSYAELISQAIESAPEKRLTLAQIYEWMVRTVPYFKDKGDSNSSAGWKNSIRHNLSLHSKFIKVHNEATGKSSWWMLNPEGGKSGKAPRRRAASMDSSSKLLRG
# What was measured:
# [1] = system: CRC29 colorectal cancer organoid line, liver metastases; experiment: Colorectal cancer organoid CRC29 caecum implant model, liver metastasis (FIG. 9); assay type: in vivo, immunodeficient mice; conditions: 50 mg/kg 5-FU, 3 doses of 2.5 mg/kg CL04183, versus PBS
# Procedure: The colorectal cancer organoid line CRC29 was implanted in the caecum of immunodeficient mice. Two weeks after transplantation the animals were treated with either ‘5-Fluorouracil (5-FU) or PBS. […] A) The livers were stained for KU80 or human nucleoli to detect human cancer cells in the mouse organs, together with p-p53 (T55) or PML. B) The number of liver metastases per stained section was counted by eye.
# Mouse experiments were performed after approval from the Dutch animal ethics committee (WP number 9124-1-03). NOD.Cg-Prkdcscid Il2rgtm1Wjl/SzJ/J mice were purchased from Charles River and maintained in a pathogen-free environment. The animals were anaesthetized using 75 mg/kg ketamine and 0.5 mg/kg dexmedetomidine injected i.p., while 5 mg/kg carprofen was injected s.c. as analgesia. Subsequently, CRC29 organoids (250000 cells) containing a firefly luciferase construct were transplanted into the caecum in a 10 μl collagen droplet. Two weeks after tumor cell implatation the animals were treated with either 50 mg/kg ‘5-Fluorouracil (5-FU) or PBS. […] Four weeks after transplantation, the mice were sacrificed, and tissues were collected for further processing.
# [2] = system: human breast cancer cell lines; experiment: MTS viability assay in human breast cancer cell lines versus number of PML bodies (FIG. 7); assay type: cell-based
# Description: Spearman's rank correlation coefficient (0.93) given; B) Correlation of open P53 (Pab240 clone) and P53 pSer392 (EP155Y clone) staining in a panel of eight human breast cancer lines including luminal, Her2 positive and triple-negative. Spearman's rank correlation coefficient (0.88) given; and C) Association between PML body count/nuclear pixel (to correct for variation in nucleus size between lines) and nuclear P53 pSer392 staining intensity in eight human breast cancer lines plotted against the effective dose inducing cell death in 50% of the population (ED50, as measured by MTS assay) after treatment with CL04177 for these cell lines. Sensitive cell lines are highlighted by the box.
# To study the selectivity of different therapies for cancer cells, colorimetric-based cytotoxicity assays were performed two days following treatments. […] The resulting colorimetric reactions were read at 490 nm on a Microplate Absorbance Reader. Relative survival was determined by normalization of the results to Mock (=100% alive). […]
# Six days after treatment, cells were incubated with 10 μl CellTiter 96® AQueous One Solution Cell Proliferation Assay (Promega) for 1 hour at 37° C. to perform an MTS assay. Subsequently, absorbance was measured at 490 nm using a Spectramax M5e.
# [3] = system: MDA-MB-231 firefly luciferase-containing cells, metastases; experiment: Anti-metastatic activity in vivo in an orthotopic TNBC model (FIG. 8); set-up: species or system NSG mice
# Procedure: PBS-treated mice developed metastatic growth visible by bioluminescence.
# Approval for this study was obtained by the local University Animal Experimental Committee at the University Medical Center Utrecht (IVD-UMC; WP numbers 9124-1-02 and −05). MDA-MB-231 firefly luciferase-containing cells were transplanted orthotopically into the exposed inguinal mammary fat pad as single cells at a density of 1 millionn cells in 50 ul of a medium into NSG mice (NOD.Cg-PrkdcIL2rgmWij/Szj) (stock 005557). Carprofen was injected s.c. as analgesia following the surgery. Animals were purchased from Charles River and maintained in a pathogen-free environment.
# Tumor growth dynamics were quantified in mice with established tumors (>50 mm3). […] After 2 weeks of recovery, mice were sacrificed. For in vivo dosing, the peptides were dissolved in PBS. We used 11 mice per group that were randomly assigned to the different treatment groups before the start of the experiment.
# To visualize tumor burden in a live mouse, mice were injected with luciferin substrate i.p. at 150 mg/kg, and imaged under isoflurane anesthesia 15 min later using a bioluminescence imager. The M3Vision software was used to analyze the bioluminescence signal by taking a region of interest (ROI) around the primary tumor to evaluate the BL signal from the tumor or around the upper abdomen and chest of the mouse to evaluate the signal from metastases. The signal was measured in photons/s/cm2.
# [4] = system: triple-negative breast cancer cell line MDAMB231; experiment: Immunofluorescence of MDAMB231 cells surviving the LD50 dose (FIG. 13); assay type: cell-based, human; conditions: staining two days later, survivors have low PML and p53 (S392)
# Procedure: A) The triple-negative breast cancer cell line MDAMB231 was treated with the LD50 dose, determined in previous assays. Two days later, an immunofluorescence staining was performed for the indicated proteins. B) Therapy-survivors are made up primarily of cells with low levels of these proteins.
# (§1) To study the selectivity of different therapies for cancer cells, colorimetric-based cytotoxicity assays were performed two days following treatments. Cells from several different cancer types (breast, ovarian, pancreas, gastric lung and liver cancer) were cultured in 96-wells plates with 4000 cells per well. These were treated with a serial dilution of compounds in triplicates and mock-treatments ([…], since peptides were dissolved therein). The AQeousOne Solution Cell Proliferation Assay Kit was used to assess cell viability, according to the manufacturer's instructions. In short, the old medium was removed and 100 μl of fresh medium and 10 μl of CellTiter AQueousOne solution were added to each well. The plates were incubated for 1 hour at 37° C. The resulting colorimetric reactions were read at 490 nm on a Microplate Absorbance Reader. Relative survival was determined by normalization of the results to Mock (=100% alive). […]
# [5] = system: cancer cell lines with wildtype or "open" p53 conformation; experiment: Viability curves / ED50 in cell lines from several types of cancer by p53 conformation (FIG. 14); assay type: cell-based; conditions: cancers with genetic mutations in p53, versus wildtype p53 conformation
# Description: FIG. 14 The CL04177 peptide targets cells from multiple types of cancer, with a higher selectivity towards cell lines that are genetically predisposed towards expressing p53 in its “open” conformation through TP53 mutations. Viability curves exemplifying the response to the peptide for two cell lines, A) A2780 that has a wildtype p53 conformation and B) H23, which contains p53 with an “open” conformation based on genetic mutations in p53.
# as §1
# [6] = target: p53-TAD2 phosphorylated at T55 or S46 (Homo sapiens, UniProt P04637); experiment: Fluorescence anisotropy binding assay with FITC-labelled p53 peptides (FIG. 3); conditions: versus non-phosphorylated p53-TAD2
# Procedure: Data was acquired on a ClarioStar Plus plate reader. Endpoint measurement with 200 flashes per well were performed. An excitation filter with 482 nm wavelength and emission filter with 530 nm were used and gain adjustment as well as focal height adjustment were performed for each measurement. Fluorescence intensity, parallel fluorescence polarization and perpendicular fluorescence polarization were recorded. Data analysis was performed using MARS Version 3.4 (BMG), Microsoft Excel and GraphPad Prism Version 8.
# For measurements, 116 μl of a solution of the specific Cleara peptides (ranging from 1 to 100 μM) were prepared. Subsequently 4 μl of FITC-labelled p53 peptides (stock concentration 15 μM, resulting in a final concentration of 500 nM) were added. 35 μl were then transferred in each well of the 384-well plate. Measurements were performed in triplicates. If necessary, this setup was extended with lower concentrations in order to cover strong interactions.
# The anisotropy (r) is defined as the ratio of the polarized component to the total intensity (IT):
# where the excitation is polarized along the z-axis, emission from the fluorophore is symmetric around the z-axis, so Ix=Iy and […], resulting in:
# The obtained anisotropy values for each concentration of CL peptide can be used to determine the binding affinity, by applying following fitting function: […]
# [7] = daily s.c. for one week, 2.5 mg/kg CL04183, 10 mg/kg CL04177, versus PBS
# p53-TAD2 phosphorylated at T55 or S46, sequence (P04637 37-57 limits assumed): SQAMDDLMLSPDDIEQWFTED
molecule,measurement,setting,value
"O=c1[nH]cc(F)c(=O)[nH]1 [5-FU, 5-Fluorouracil]",effect on liver metastases,[1],specifically counteract liver metastases
"RKKASSKIEAEILDAFSQNWRRKRPPRRRQRRKKRG ([dR][dK][dK][dA][dS][dS][dK][dI][dE][dA][dE][dI][dL][dD][dA][dF][dS][dQ][dN][dW][dR][dR][dK][dR][dP][dP][dR][dR][dR][dQ][dR][dR][dK][dK][dR]G; listed as Homo sapiens) [CL04177, retro-inverso peptide derived from human FOXO4]",sensitivity of cell lines to the peptide,[2]; breast cancer lines with few PML bodies,less sensitive
same,sensitivity of cell lines to the peptide,[2]; triple-negative lines with high levels of PML bodies,highly sensitive
same,effect on liver metastases,[3]; FIG. 8,specifically counteract liver metastases
same,incidence of liver metastasis (bioluminescence of tumor cells in the extracted livers),[3]; [7],decreased the incidence of liver metastasis
same,incidence of visible metastasis (bioluminescence),[3]; [7],decreased the incidence of visible metastasis
same,cell population targeted,[4],targets cells with increased PML bodies and phosphorylated p53
same,"sensitivity (ED50s) of cancers predisposed towards ""open"" p53",[5],more sensitive
B1,affinity to p53-TAD2 when phosphorylated at T55 or S46,[6],substantially higher affinity
